Here are results for 5 molecules from patent US20040048790A1, “Inducing cellular immune responses to p53 using peptide and nucleic acid compositions” (priority 1999, published 2004).

For assay [1], the system named is target cells pulsed with wild-type peptide. The assay is described as follows: CTL recognition of targets pulsed with the wildtype peptide (51Cr release). In kind it is cell-based, human. As to conditions: Number of donors yielding a positive response/total tested; Table XXVIIb.
Assay [2] has as its system 0.221A2.1 cell line, peptide-loaded target. The assay is described as follows: Primary in vitro CTL induction, 51Cr release against targets pulsed with the induction peptide. As to conditions: Number of donors yielding a positive response/total tested; Table XXVIIb.
The target of assay [3] is A*0206 (Homo sapiens, UniProt P04439, D140Y/D185E/D98H/E176V/E277Q/F33Y/G131W/G231S/I119V/I121R/I166T/I218V/L300P/L318F/N151K/N90K/P208A/P217A/Q86G/Q94H/R138H/R169H/T345S). In words: biochemical.
In assay [4] the target is A*0203 (Homo sapiens, UniProt P04439, A173T/D140Y/D185E/D98H/E277Q/G131W/G231S/I119V/I121R/I166T/I218V/L180W/L300P/L318F/N151K/N90K/P208A/P217A/Q86G/Q94H/R138H/R169H/T345S). In words: biochemical.
The target of assay [5] is A*0202 (Homo sapiens, UniProt P04439, D140Y/D185E/D98H/E176V/E277Q/G131W/G231S/I119L/I121R/I166T/I218V/L180W/L300P/L318F/N151K/N90K/P208A/P217A/Q67R/Q86G/Q94H/R138H/R169H/T345S). The assay is described as follows: biochemical.
Assay [6] addresses DRB1*0701 (Homo sapiens, UniProt P01903+P01911, A100R/A102G/A103Q/D57E/D86V/E43K/F76Y/K127E/L162R/M171V/P40G/Q125H/Q99D/R33Q/R42Y/R54Q/S133A/S66F/T210M/V115G/Y107V/Y59L/Y89S). The assay is described as follows: biochemical.
For assay [7], the target named is DRB1*0401 (Homo sapiens, UniProt P01903+P01911, A100K/A169T/F76Y/I96L/K127E/L162R/M171V/N62H/P40V/Q125Y/R42H/S133A/S149N/S66Y/V115G/V209L/W38E). In words: biochemical.

As a reminder, the IC50 is the midpoint of a concentration-inhibition curve.

Non-standard residues stand in square brackets, D forms with d. Residues, ends and D or L forms follow the SMILES beside them. Abu = CC[C@H](N)C(=O)O

Regarding `CC[C@H](NC(=O)[C@H](Cc1ccccc1)NC(=O)[C@H](CCSC)NC(=O)[C@H](CCCCN)NC(=O)[C@H](CC(N)=O)NC(=O)[C@H](CC(C)C)NC(=O)[C@H](C)N)C(=O)N[C@@H](CCC(N)=O)C(=O)N[C@H](C(=O)O)C(C)C` [p53.129B7V9] (H-ALNKMF[Abu]QV-OH), in assay [1], the “CTL Wild-type” value is listed as 0/3. Besides, in assay [2], the “CTL Peptide” value is given as 2/4.

In the case of `CC[C@H](NC(=O)[C@H](Cc1ccccc1)NC(=O)[C@H](CCSC)NC(=O)[C@@H](N)CCCCN)C(=O)N[C@@H](CCC(N)=O)C(=O)N[C@@H](CC(C)C)C(=O)N[C@@H](C)C(=O)N[C@@H](CCCCN)C(=O)N[C@H](C(=O)O)C(C)C` [p53.132B4V9] (H-KMF[Abu]QLAKV-OH), the IC50 was determined as 0.037 µM in assay [3], 0.0091 µM in assay [4] and 0.013 µM in assay [5]. The “CTL Wild-type” value in assay [1] is listed as 0/4. In addition, the “CTL Peptide” value in assay [2] is on record as 5/5.

Consider `CC[C@H](C)[C@H](NC(=O)[C@@H](NC(=O)[C@H](CC(C)C)NC(=O)[C@@H](NC(=O)[C@@H]1CCCN1C(=O)[C@H](CCCNC(=N)N)NC(=O)[C@H](CCCNC(=N)N)NC(=O)[C@H](CC(N)=O)NC(=O)[C@H](CCSC)NC(=O)CNC(=O)CNC(=O)[C@@H](N)CCSC)[C@@H](C)CC)[C@@H](C)O)C(=O)N[C@H](C(=O)N[C@H](C(=O)N[C@@H](CC(C)C)C(=O)O)[C@@H](C)O)[C@@H](C)CC` [p53.243], for which the IC50 in assay [6] and in assay [7] was greater than 10 µM throughout.

Take `CC(C)C[C@H](NC(=O)[C@H](C)NC(=O)[C@H](CCCNC(=N)N)NC(=O)[C@@H](N)CCCCN)C(=O)N1CCC[C@H]1C(=O)N[C@@H](CC(N)=O)C(=O)N[C@@H](CC(N)=O)C(=O)N[C@H](C(=O)N[C@@H](CO)C(=O)N[C@@H](CO)C(=O)N[C@@H](CO)C(=O)N1CCC[C@H]1C(=O)N[C@@H](CCC(N)=O)C(=O)N1CCC[C@H]1C(=O)N[C@@H](CCCCN)C(=O)O)[C@@H](C)O` [p53.305]: the IC50 in assay [6] and in assay [7] was greater than 10 µM throughout.

For the molecule `CC[C@H](C)[C@H](NC(=O)[C@H](CCC(N)=O)NC(=O)[C@H](CC(C)C)NC(=O)[C@@H](NC(=O)[C@H](Cc1ccccc1)NC(=O)[C@H](Cc1ccc(O)cc1)NC(=O)[C@H](CCC(=O)O)NC(=O)CNC(=O)[C@@H](N)CC(=O)O)[C@@H](C)O)C(=O)N[C@@H](CCCNC(=N)N)C(=O)NCC(=O)N[C@@H](CCCNC(=N)N)C(=O)N[C@@H](CCC(=O)O)C(=O)N[C@@H](CCCNC(=N)N)C(=O)N[C@@H](Cc1ccccc1)C(=O)O` [p53.324], the IC50 in assay [6] and in assay [7] was greater than 10 µM in each case.
